Test results: patent US12391737B2, “Soluble NPY2 receptor agonists” (Boehringer Ingelheim International GmbH, priority 2020, dated 2025)
*1 amine or outer side, *2 acyl side, *3 side chain or, on linkers, in order; H or OH if unused. Where a SMILES comes first, the peptide text is derived from it. Side-chain parts run from the residue outwards. The star is where a group is joined. C18 diacid = O=C(O)CCCCCCCCCCCCCCCCC(=O)*; γGlu = O=C(O)[C@H](CCC(=O)[*:2])N[*:1]; Isovaleryl = CC(C)CC(=O)*; Ahx = NCCCCCC(=O)O

Columns and labels:
Solubility determination = details: for Sol6: pH 6; for Sol7: pH 7
Procedure, shortened: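 Solubility is derived from the ratio of reversed-phase peak areas, filtered sample over a control dissolved at 1 mg/ml in 50% acetonitrile. Peptides are agitated for 2 hours at room temperature in 0.1 M sodium diphosphate at pH 6.4 or 7.0, aiming at 10 mg/ml.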

[1] = molecular target: T1, Human Neuropeptide Y2 Receptor (Homo sapiens, UniProt P49146); test: Radioligand binding competition assay (RLB); details: Table 3, 125I-PYY(1-36) competition; read-out: Ki
T1 construct: purchased CHEMICON HTS066M
T1 sequence (P49146 1-381): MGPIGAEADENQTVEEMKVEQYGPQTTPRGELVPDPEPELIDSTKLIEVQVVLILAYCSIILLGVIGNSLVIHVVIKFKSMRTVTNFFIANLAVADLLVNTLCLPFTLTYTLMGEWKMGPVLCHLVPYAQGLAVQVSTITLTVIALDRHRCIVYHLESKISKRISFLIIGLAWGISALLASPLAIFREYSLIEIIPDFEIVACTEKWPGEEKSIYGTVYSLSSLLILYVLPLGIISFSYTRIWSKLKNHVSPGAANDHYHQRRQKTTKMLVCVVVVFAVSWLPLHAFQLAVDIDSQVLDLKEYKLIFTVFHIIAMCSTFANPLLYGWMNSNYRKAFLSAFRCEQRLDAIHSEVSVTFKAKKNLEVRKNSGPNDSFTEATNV
Procedure, shortened: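 Competition binding used membranes expressing the receptor (0.5 μg protein/well) in 50 mM HEPES, 5 mM MgCl2, 1 mM CaCl2, pH 7.4 with 0.2% ovalbumin, incubated 2 h at room temperature with shaking. Bound radioligand was collected by filtration onto PEI-soaked GF/C filters and counted; IC50 from nonlinear sigmoidal fits.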

Sol6 (Solubility determination) [mg/mL]	Sol7 (Solubility determination) [mg/mL]	Ki [1] [nM]	SMILES
>10.0	10.0	2.75	CC[C@H](C)[C@H](NC(=O)[C@H](Cc1ccc(O)cc1)NC(=O)[C@H](Cc1ccc(O)cc1)NC(=O)[C@H](CCCNC(=N)N)NC(=O)[C@H](CCC(N)=O)NC(=O)[C@H](CC(C)C)NC(=O)[C@H](CCC(=O)O)NC(=O)[C@H](CCC(=O)O)NC(=O)[C@@H]1CCCN1C(=O)[C@H](CCC(=O)O)NC(=O)[C@H](C)NC(=O)[C@H](CC(=O)O)NC(=O)[C@H](C)NC(=O)[C@H](CCC(=O)O)NC(=O)[C@@H]1CCCN1C(=O)[C@H](CCCCNC(=O)CCCCCNC(=O)CC[C@H](NC(=O)CCCCCCCCCCCCCCCCC(=O)O)C(=O)O)NC(=O)[C@H](CCC(=O)O)NC(=O)[C@@H]1CCCN1C(=O)[C@H](C)NC(=O)CC(C)C)C(=O)N[C@@H](CO)C(=O)N[C@@H](CC(C)C)C(=O)N[C@@H](CCCNC(=N)N)C(=O)N[C@@H](Cc1c[nH]cn1)C(=O)N[C@@H](Cc1ccc(O)cc1)C(=O)N[C@@H](Cc1ccc(O)cc1)C(=O)N[C@@H](CC(N)=O)C(=O)N[C@@H](Cc1c[nH]c2ccccc12)C(=O)N[C@@H](CC(C)C)C(=O)N[C@H](C(=O)N[C@@H](CCCNC(=N)N)C(=O)N[C@@H](CCC(N)=O)C(=O)N[C@@H](CCCNC(=N)N)C(=O)N[C@@H](Cc1ccc(O)cc1)C(N)=O)[C@@H](C)O [Compound 159, N{alpha-4}-(3-methylbutanoyl)-N{epsilon-7}-(6-[(4S)-4-carboxy-4-(17-carboxyheptadecanamido)butanamido]hexanoyl)-[4A,7K,9E,10A,13E,18Q,22I,28Y,30W,31L]-hPYY(4-36)] (Isovaleryl-APEK([Ahx-γGlu-C18 diacid])PEADAEPEELQRYYISLRHYYNWLTRQRY-NH2)
9.8	9.6	4.2	CC[C@H](C)[C@H](NC(=O)[C@H](CCC(=O)O)NC(=O)[C@H](CCC(=O)O)NC(=O)[C@@H]1CCCN1C(=O)[C@H](CCC(=O)O)NC(=O)[C@H](C)NC(=O)[C@H](C)NC(=O)[C@H](CCC(=O)O)NC(=O)[C@H](CCC(=O)O)NC(=O)[C@@H]1CCCN1C(=O)[C@H](CCCCNC(=O)CCCCCNC(=O)CC[C@H](NC(=O)CCCCCCCCCCCCCCCCC(=O)O)C(=O)O)NC(=O)[C@H](CCC(=O)O)NC(=O)[C@@H]1CCCN1C(=O)[C@H](C)NC(=O)CC(C)C)C(=O)N[C@@H](CCC(N)=O)C(=O)N[C@@H](CCCNC(=N)N)C(=O)N[C@@H](Cc1ccc(O)cc1)C(=O)N[C@@H](Cc1ccc(O)cc1)C(=O)N[C@H](C(=O)N[C@@H](C)C(=O)N[C@@H](CC(C)C)C(=O)N[C@@H](CCCNC(=N)N)C(=O)N[C@@H](Cc1c[nH]cn1)C(=O)N[C@@H](Cc1ccc(O)cc1)C(=O)N[C@@H](Cc1ccc(O)cc1)C(=O)N[C@@H](CC(N)=O)C(=O)N[C@@H](Cc1c[nH]c2ccccc12)C(=O)N[C@@H](CC(C)C)C(=O)N[C@H](C(=O)N[C@@H](CCCNC(=N)N)C(=O)N[C@@H](CCC(N)=O)C(=O)N[C@@H](CCCNC(=N)N)C(=O)N[C@@H](Cc1ccc(O)cc1)C(N)=O)[C@@H](C)O)C(C)C [Compound 156, N{alpha-4}-(3-methylbutanoyl)-N{epsilon-7}-(6-[(4S)-4-carboxy-4-(17-carboxyheptadecanamido)butanamido]hexanoyl)-[4A,7K,9E,11A,13E,17I,18Q,22V,23A,28Y,30W,31L]-hPYY(4-36)]

Second part, the molecule before the results:

SMILES	Sol6 (Solubility determination) [mg/mL]	Sol7 (Solubility determination) [mg/mL]	Ki [1] [nM]
CC[C@H](C)[C@H](NC(=O)[C@H](Cc1ccc(O)cc1)NC(=O)[C@H](Cc1ccc(O)cc1)NC(=O)[C@H](CCCNC(=N)N)NC(=O)[C@H](CCC(N)=O)NC(=O)[C@H](CC(C)C)NC(=O)[C@H](CCC(=O)O)NC(=O)[C@H](CCC(=O)O)NC(=O)[C@@H]1CCCN1C(=O)[C@@H](NC(=O)[C@H](C)NC(=O)[C@H](C)NC(=O)[C@H](CCC(=O)O)NC(=O)[C@H](CCC(=O)O)NC(=O)[C@@H]1CCCN1C(=O)[C@H](CCCCNC(=O)CCCCCNC(=O)CC[C@H](NC(=O)CCCCCCCCCCCCCCCCC(=O)O)C(=O)O)NC(=O)[C@H](C)NC(=O)[C@@H]1CCCN1C(=O)[C@H](C)NC(=O)CC(C)C)[C@@H](C)O)C(=O)N[C@@H](CO)C(=O)N[C@@H](CC(C)C)C(=O)N[C@@H](CCCNC(=N)N)C(=O)N[C@@H](Cc1c[nH]cn1)C(=O)N[C@@H](Cc1ccc(O)cc1)C(=O)N[C@@H](Cc1ccc(O)cc1)C(=O)N[C@@H](CC(N)=O)C(=O)N[C@@H](Cc1c[nH]c2ccccc12)C(=O)N[C@@H](CC(C)C)C(=O)N[C@H](C(=O)N[C@@H](CCCNC(=N)N)C(=O)N[C@@H](CCC(N)=O)C(=O)N[C@@H](CCCNC(=N)N)C(=O)N[C@@H](Cc1ccc(O)cc1)C(N)=O)[C@@H](C)O [Compound 48, N{alpha-4}-(3-methylbutanoyl)-N{epsilon-7}-(6-[(4S)-4-carboxy-4-(17-carboxyheptadecanamido)butanamido]hexanoyl)-[4A,6A,7K,9E,11A,13T,18Q,22I,28Y,30W,31L]-hPYY(4-36)]	0.0	0.3	1.54
CC[C@H](C)[C@H](NC(=O)[C@H](CCC(=O)O)NC(=O)[C@H](CCC(=O)O)NC(=O)[C@@H]1CCCN1C(=O)[C@@H](NC(=O)[C@H](C)NC(=O)[C@H](CC(=O)O)NC(=O)[C@H](CCC(=O)O)NC(=O)[C@H](CCC(=O)O)NC(=O)[C@@H]1CCCN1C(=O)[C@H](CCCCNC(=O)CCCCCNC(=O)CC[C@H](NC(=O)CCCCCCCCCCCCCCCCC(=O)O)C(=O)O)NC(=O)[C@H](CCC(=O)O)NC(=O)[C@@H]1CCCN1C(=O)[C@H](C)NC(=O)CC(C)C)[C@@H](C)O)C(=O)N[C@@H](CCC(N)=O)C(=O)N[C@@H](CCCNC(=N)N)C(=O)N[C@@H](Cc1ccc(O)cc1)C(=O)N[C@@H](Cc1ccc(O)cc1)C(=O)N[C@@H](C)C(=O)N[C@@H](CO)C(=O)N[C@@H](CC(C)C)C(=O)N[C@@H](CCCNC(=N)N)C(=O)N[C@@H](Cc1c[nH]cn1)C(=O)N[C@@H](Cc1ccc(O)cc1)C(=O)N[C@@H](Cc1ccc(O)cc1)C(=O)N[C@@H](CC(N)=O)C(=O)N[C@@H](Cc1c[nH]c2ccccc12)C(=O)N[C@@H](CC(C)C)C(=O)N[C@H](C(=O)N[C@@H](CCCNC(=N)N)C(=O)N[C@@H](CCC(N)=O)C(=O)N[C@@H](CCCNC(=N)N)C(=O)N[C@@H](Cc1ccc(O)cc1)C(N)=O)[C@@H](C)O [Compound 86, N{alpha-4}-(3-methylbutanoyl)-N{epsilon-7}-(6-[(4S)-4-carboxy-4-(17-carboxyheptadecanamido)butanamido]hexanoyl)-[4A,7K,9E,13T,17I,18Q,28Y,30W,31L]-hPYY(4-36)]	>10.0	>10.0	4.33
CC(C)CC(=O)N[C@@H](C)C(=O)N1CCC[C@H]1C(=O)N[C@@H](CCC(=O)O)C(=O)N[C@@H](CCCCNC(=O)CCCCCNC(=O)CC[C@H](NC(=O)CCCCCCCCCCCCCCCCC(=O)O)C(=O)O)C(=O)N1CCC[C@H]1C(=O)N[C@@H](CCC(=O)O)C(=O)N[C@@H](CCC(=O)O)C(=O)N[C@@H](CC(=O)O)C(=O)N[C@@H](C)C(=O)N[C@@H](CO)C(=O)N1CCC[C@H]1C(=O)N[C@@H](CCC(=O)O)C(=O)N[C@@H](C)C(=O)N[C@@H](CC(C)C)C(=O)N[C@@H](CCC(N)=O)C(=O)N[C@@H](CCC(=O)O)C(=O)N[C@@H](Cc1ccc(O)cc1)C(=O)N[C@@H](Cc1ccc(O)cc1)C(=O)N[C@H](C(=O)N[C@@H](CO)C(=O)N[C@@H](CC(C)C)C(=O)N[C@@H](CCCNC(=N)N)C(=O)N[C@@H](Cc1c[nH]cn1)C(=O)N[C@@H](Cc1ccc(O)cc1)C(=O)N[C@@H](Cc1ccc(O)cc1)C(=O)N[C@@H](CC(N)=O)C(=O)N[C@@H](Cc1c[nH]c2ccccc12)C(=O)N[C@@H](CC(C)C)C(=O)N[C@H](C(=O)N[C@@H](CCCNC(=N)N)C(=O)N[C@@H](CCC(N)=O)C(=O)N[C@@H](CCCNC(=N)N)C(=O)N[C@@H](Cc1ccc(O)cc1)C(N)=O)[C@@H](C)O)C(C)C [Compound 39, N{alpha-4}-(3-methylbutanoyl)-N{epsilon-7}-(6-[(4S)-4-carboxy-4-(17-carboxyheptadecanamido)butanamido]hexanoyl)[4A,7K,9E,16A,18Q,19E,22V,28Y,30W,31L]-hPYY(4-36)]	10.0	10.0	2.73
CC(C)CC(=O)N[C@@H](C)C(=O)N1CCC[C@H]1C(=O)N[C@@H](CCC(=O)O)C(=O)N[C@@H](CCCCNC(=O)CCCCCNC(=O)CC[C@H](NC(=O)CCCCCCCCCCCCCCCCC(=O)O)C(=O)O)C(=O)N1CCC[C@H]1C(=O)N[C@@H](CCC(=O)O)C(=O)N[C@@H](CCC(=O)O)C(=O)N[C@@H](CC(=O)O)C(=O)N[C@@H](C)C(=O)N[C@H](C(=O)N1CCC[C@H]1C(=O)N[C@@H](CCC(=O)O)C(=O)N[C@@H](CCC(=O)O)C(=O)N[C@@H](CC(C)C)C(=O)N[C@@H](CCC(N)=O)C(=O)N[C@@H](CC(C)C)C(=O)N[C@@H](Cc1ccc(O)cc1)C(=O)N[C@@H](Cc1ccc(O)cc1)C(=O)N[C@H](C(=O)N[C@@H](CO)C(=O)N[C@@H](CC(C)C)C(=O)N[C@@H](CCCNC(=N)N)C(=O)N[C@@H](Cc1c[nH]cn1)C(=O)N[C@@H](Cc1ccc(O)cc1)C(=O)N[C@@H](Cc1ccc(O)cc1)C(=O)N[C@@H](CC(N)=O)C(=O)N[C@@H](Cc1c[nH]c2ccccc12)C(=O)N[C@@H](CC(C)C)C(=O)N[C@H](C(=O)N[C@@H](CCCNC(=N)N)C(=O)N[C@@H](CCC(N)=O)C(=O)N[C@@H](CCCNC(=N)N)C(=O)N[C@@H](Cc1ccc(O)cc1)C(N)=O)[C@@H](C)O)C(C)C)[C@@H](C)O [Compound 130, N{alpha-4}-(3-methylbutanoyl)-N{epsilon-7}-(6-[(4S)-4-carboxy-4-(17-carboxyheptadecanamido)butanamido]hexanoyl)-[4A,7K,9E,13T,18Q,19L,22V,28Y,30W,31L]-hPYY(4-36)]	9.9	10.0	9.36
